# Source: article PMC7806935, “Exosite inhibition of ADAMTS-5 by a glycoconjugated arylsulfonamide” (Scientific Reports, 2021)
# Molecular target: T1, ADAMTS-4 (Homo sapiens, UniProt O75173)
# T1 construct: made in house
# T1 sequence (O75173 213-837): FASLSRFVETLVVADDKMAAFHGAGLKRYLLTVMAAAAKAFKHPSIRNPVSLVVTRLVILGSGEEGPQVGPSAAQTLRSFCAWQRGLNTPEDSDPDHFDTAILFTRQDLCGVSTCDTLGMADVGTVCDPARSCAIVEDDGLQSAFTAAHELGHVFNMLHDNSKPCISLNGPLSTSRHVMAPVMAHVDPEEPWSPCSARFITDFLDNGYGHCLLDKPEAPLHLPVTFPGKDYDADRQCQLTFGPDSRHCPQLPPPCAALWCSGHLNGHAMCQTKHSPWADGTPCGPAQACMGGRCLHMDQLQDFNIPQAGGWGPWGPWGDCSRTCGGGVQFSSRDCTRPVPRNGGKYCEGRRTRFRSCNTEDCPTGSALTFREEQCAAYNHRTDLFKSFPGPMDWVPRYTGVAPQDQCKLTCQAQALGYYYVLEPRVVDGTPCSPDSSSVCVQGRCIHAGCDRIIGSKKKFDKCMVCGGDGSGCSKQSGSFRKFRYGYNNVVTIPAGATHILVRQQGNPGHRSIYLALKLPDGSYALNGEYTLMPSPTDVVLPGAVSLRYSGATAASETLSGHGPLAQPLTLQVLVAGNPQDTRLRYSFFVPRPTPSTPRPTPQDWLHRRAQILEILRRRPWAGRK
# Experiment: QF peptide cleavage assay, ADAMTS-4
# Type: biochemical
# Details: 12-residue QF peptide substrate; mean ± SEM (n = 3); read-out: IC50 (μM) QF peptide ATS4
# Description: All enzyme assays were conducted in TNC-B buffer (50 mM Tris–HCl, pH 7.5, 150 mM NaCl, 10 mM CaCl2, and 0.02% NaN3) at 37 °C. To avoid the formation of inhibitor aggregates, the detergent Brij-35 (0.05%) was added to the assay buffer. No aggregation was visually observed at concentrations up to 2 mM. The inhibitor stock solutions in DMSO (10 mM) were diluted at different concentrations in assay buffer and incubated with ADAMTS-4 or ADAMTS-5 for 2 h at 37 °C. Percent of inhibition was calculated from control reactions containing only DMSO. IC50 values were determined using the formula: vi/v0 = 1/(1 + [I]/IC50) where vi is the initial velocity of substrate cleavage in the presence of the inhibitor at concentration [I] and v0 is the initial velocity in the presence of an equal concentration (v/v) of DMSO.
# QF peptide cleavage assays were conducted in 96-well black microtiter plates (Scientific Laboratories Supplies Ltd, Wilford, UK) using a Fluostar Omega microplate reader (BMG Labtech, Aylesbury, UK). The activity of ADAMTS-4 (1 nM) and -5 (5 nM) was monitored for 2 h using the fluorescent peptide substrates fluorescein 5(6)-carbonyl-Ala-Glu-Leu-[…]-Gly-Arg-Pro-Ile-Ser-Ile-Ala-Lys-N,N,N0,N0-tetramethyl-6-carboxyrhodamine-NH2 (FAM-AE ~ LQGRPISIAK-TAMRA, ADAMTS-4) and fluorescein 5(6)-carbonyl-Thr-Glu-Ser-Glu ~ Ser-Arg-Gly-Ala-Ile-Tyr-Lys-Lys-N,N,N0,N0-tetramethyl-6-carboxyrhodamine-NH2 (FAM-TESE ~ SRGAIYKK-TAMRA, ADAMTS-5) (custom-synthesized by Bachem, Bubendorf, Switzerland) with an excitation wavelength of 485 nm and an emission wavelength of 538 nm. Final substrate concentrations were 1 μM and 40 μM for ADAMTS-4 and -5, respectively. Fluorescence was expressed in relative fluorescence units (RFU) and normalized against a blank containing only buffer and substrate. Emission spectra were recorded at several concentrations of each compound to exclude auto-fluorescence and maximal inhibitor concentrations were selected accordingly.
row,IC50,Compound
1,> 50 µM,CCC(C)N(Cc1cn(CCCOC(=O)c2ccccc2)nn1)S(=O)(=O)c1ccc(-c2ccccc2)cc1 (racemic) [Compound 6]
2,> 50 µM,CCC(C)N(Cc1cn(CCCOC2OC(CO)C(O)C(O)C2NC(C)=O)nn1)S(=O)(=O)c1ccc(-c2ccccc2)cc1 (mixture of isomers) [Compound 4b]
